Reference: patent US10385065B2, “Antibacterial compounds” (priority 2014, dated 2019)
Values after ≈ are worked out from the molar mass of the structure shown. Where two headings read alike, the source gives them in different places.

Tests used:
Type in all cases: cell-based
[1] = tested on: S. aureus VRS1 MRSA VAN resistant; experiment: MIC, S. aureus VRS1; details: Staphylococcus aureus, Table 2
[2] = tested on: S. aureus NRS482 MRSA FQ resistant; experiment: MIC, S. aureus NRS482; details: Staphylococcus aureus; Table 2
[3] = tested on: Escherichia coli ATCC 25922; experiment: MIC, broth microdilution, E. coli ATCC 25922; details: ATCC25922, Table 1, wild type strain
[4] = tested on: human hepatic cell line (HepG2 ATCC HB-8065); experiment: Human cell viability assay (CellTiter-Glo), HepG2; details: HepG2, 24 h incubation, tested over 1-128 μg/mL, read-out: IC50 values against HepG2
Outline: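 HepG2 seeded at 20,000 cells/well, then after 24 h given two-fold serial dilutions (1-128 μg/mL, 1% DMSO) in DMEM with 0.001% FBS and 0.3% albumin. After 24 h at 37 °C, ATP luminescence (CellTiter-Glo) read; IC50 is the concentration halving viability.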

[5] = tested on: Staphylococcus aureus ATCC 29213; experiment: MIC, broth microdilution, S. aureus ATCC 29213
[6] = tested on: Haemophilus influenzae ATCC 49247; experiment: MIC, H. influenzae ATCC 49247; details: ATCC49247, Table 4
[7] = tested on: S. aureus SACPX1-SP25 MSSA - FQ resistant; experiment: microbe, parasite or virus in culture; details: Staphylococcus aureus, ATCC 29213 / MSSA, read-out: MIC S. aureus SACPX1-SP25 MSSA - FQ resistant (isogenic mutant of ATCC 29213)
[8] = tested on: S. aureus NRS1 MRSA; experiment: MIC, S. aureus NRS1; details: Staphylococcus aureus; Table 2; read-out: MIC S. aureus NRS1 MRSA AMG & TET resistant
[9] = tested on: S. aureus (MRSA) ATCC 43300; experiment: MIC, S. aureus ATCC 43300; details: Staphylococcus aureus; Table 2; read-out: MIC S. aureus (MRSA) ATCC 43300 Heterogeneous MRSA strain
[10] = tested on: S. aureus NRS127 MRSA LZD resistant; experiment: MIC, S. aureus NRS127; details: Staphylococcus aureus; Table 2
[11] = tested on: Enterococcus faecium ATCC 19434; experiment: MIC, E. faecium ATCC 19434; details: ATCC19434, Table 2
[12] = tested on: S. epidermidis NRS101 MRSE; experiment: MIC, S. epidermidis NRS101; details: Staphylococcus epidermidis; Table 2; read-out: MIC S. epidermidis NRS101 MRSE AMG, ERY resistant
[13] = tested on: Neisseria gonorrhoeae ATCC 49226; experiment: MIC, N. gonorrhoeae ATCC 49226; details: ATCC49226, Table 4, 24 h incubation
[14] = tested on: S. aureus NRS100 MRSA; experiment: MIC, S. aureus NRS100; details: Staphylococcus aureus; Table 2
[15] = tested on: Legionella pneumophila ATCC 33152; experiment: microbe, parasite or virus in culture; details: ATCC33152, 48 h, read-out: MIC Legionella pneumophila ATCC 33152
[16] = ATCC29213, Table 1, wild type strain, read-out: MIC S. aureus ATCC 29213
[17] = ATCC 29213 / MSSA, Table 2, read-out: MIC S. aureus (MSSA) ATCC 29213 CLSI control strain

Structure (SMILES)	MIC [1] [µg/mL]	MIC [2] [µg/mL]	MIC [3] [µg/mL]	IC50 [4] [µg/mL]	MIC [5, 16] [µg/mL]	MIC [5, 17] [µg/mL]	MIC [6] [µg/mL]	MIC [7] [µg/mL]	MIC [8] [µg/mL]	MIC [9] [µg/mL]	MIC [10] [µg/mL]	MIC [11] [µg/mL]	MIC [12] [µg/mL]	MIC [13] [µg/mL]	MIC [14] [µg/mL]	MIC [15] [µg/mL]
Cc1nc2c(=O)n(C3CC3)c3c(C)c(-c4cc(F)c(N)cc4F)ccc3c2o1 [Compound 4, 7-(4-amino-2,5-difluoro-phenyl)-5-cyclopropyl-2,6-dimethyl-oxazolo[4,5-c]quinolin-4-one]	< 1	< 1	1 to 10 (≈ 2.62 to 26.2 µM)	10 to 100 (≈ 26.2 to 262 µM)	< 1	< 1	< 1	< 1	1 to 10 (≈ 2.62 to 26.2 µM)	< 1	< 1	> 100	–	–	–	–
Cc1c(-c2cnc(N)nc2)ccc2c3ocnc3c(=O)n(C3CC3)c12 [Compound 14, 7-(2-aminopyrimidin-5-yl)-5-cyclopropyl-6-methyl-oxazolo[4,5-c]quinolin-4-one]	–	1 to 10 (≈ 3 to 30 µM)	10 to 100 (≈ 30 to 300 µM)	10 to 100 (≈ 30 to 300 µM)	< 1	< 1	1 to 10 (≈ 3 to 30 µM)	1 to 10 (≈ 3 to 30 µM)	1 to 10 (≈ 3 to 30 µM)	1 to 10 (≈ 3 to 30 µM)	–	> 100	–	–	–	–
Cc1c(-c2cnc3[nH]ncc3c2)ccc2c3ocnc3c(=O)n(C3CC3)c12 [Compound 20, 5-cyclopropyl-6-methyl-7-(1H-pyrazolo[3,4-b]pyridine-5-yl)oxazolo[4,5-c]quinolin-4-one]	< 1	< 1	1 to 10 (≈ 2.8 to 28 µM)	> 100	< 1	< 1	< 1	< 1	< 1	< 1	< 1	1 to 10 (≈ 2.8 to 28 µM)	< 1	–	–	–
Cc1c(-c2cnc3[nH]nc(N)c3c2)ccc2c3ocnc3c(=O)n(C3CC3)c12 [Compound 21, 7-(3-amino-1H-pyrazolo[3,4-b]pyridine-5-yl)-5-cyclopropyl-6-methyl-oxazolo[4,5-c]quinolin-4-one]	< 1	< 1	10 to 100 (≈ 26.9 to 269 µM)	10 to 100 (≈ 26.9 to 269 µM)	< 1	< 1	1 to 10 (≈ 2.69 to 26.9 µM)	–	< 1	< 1	< 1	1 to 10 (≈ 2.69 to 26.9 µM)	< 1	–	–	–
Cc1nc2c(=O)n(C3CC3)c3c(C)c(-c4ccc(N)nc4)ccc3c2o1 [Compound 23, 7-(6-amino-3-pyridyl)-5-cyclopropyl-2,6-dimethyl-oxazolo[4,5-c]quinolin-4-one]	10 to 100 (≈ 28.9 to 289 µM)	1 to 10 (≈ 2.89 to 28.9 µM)	1 to 10 (≈ 2.89 to 28.9 µM)	–	< 1	< 1	1 to 10 (≈ 2.89 to 28.9 µM)	1 to 10 (≈ 2.89 to 28.9 µM)	1 to 10 (≈ 2.89 to 28.9 µM)	< 1	1 to 10 (≈ 2.89 to 28.9 µM)	> 100	1 to 10 (≈ 2.89 to 28.9 µM)	1 to 10 (≈ 2.89 to 28.9 µM)	–	–
Cc1c(-c2cc(F)c(CO)cc2F)ccc2c3ocnc3c(=O)n(C3CC3)c12 [Compound 25, 5-cyclopropyl-7-[2,5-difluoro-4-(hydroxymethyl)phenyl]-6-methyl-oxazolo[4,5-c]quinolin-4-one]	< 1	< 1	1 to 10 (≈ 2.62 to 26.2 µM)	10 to 100 (≈ 26.2 to 262 µM)	< 1	< 1	< 1	–	< 1	< 1	< 1	10 to 100 (≈ 26.2 to 262 µM)	< 1	–	–	–
Cc1nc2c(=O)n(C3CC3)c3c(C)c(-c4ccc(C(N)=O)cc4)ccc3c2o1 [Compound 26]	1 to 10 (≈ 2.68 to 26.8 µM)	1 to 10 (≈ 2.68 to 26.8 µM)	> 100	> 100	< 1	< 1	1 to 10 (≈ 2.68 to 26.8 µM)	–	1 to 10 (≈ 2.68 to 26.8 µM)	1 to 10 (≈ 2.68 to 26.8 µM)	1 to 10 (≈ 2.68 to 26.8 µM)	> 100	< 1	–	–	–
Cc1nc2c(=O)n(C3CC3)c3c(C)c(-c4ccc5cn[nH]c5c4)ccc3c2o1 [Compound 27, 5-cyclopropyl-7-(l H-indazol-6-yl)-2,6-dimethyl-oxazolo[4,5-c]quinolin-4-one]	10 to 100 (≈ 27 to 270 µM)	< 1	1 to 10 (≈ 2.7 to 27 µM)	10 to 100 (≈ 27 to 270 µM)	< 1	< 1	1 to 10 (≈ 2.7 to 27 µM)	–	1 to 10 (≈ 2.7 to 27 µM)	< 1	10 to 100 (≈ 27 to 270 µM)	> 100	< 1	–	–	–
Cc1nc2c(=O)n(C3CC3)c3cc(N4CC[C@H](CN)C4)c(F)cc3c2o1 [Compound 52, 7-[(3R)-3-(aminomethyl)pyrrolidin-1-yl]-5-cyclopropyl-8-fluoro-2-methyl-oxazolo[4,5-c]quinolin-4-one]	1 to 10 (≈ 2.81 to 28.1 µM)	1 to 10 (≈ 2.81 to 28.1 µM)	1 to 10 (≈ 2.81 to 28.1 µM)	10 to 100 (≈ 28.1 to 281 µM)	1 to 10 (≈ 2.81 to 28.1 µM)	1 to 10 (≈ 2.81 to 28.1 µM)	1 to 10 (≈ 2.81 to 28.1 µM)	1 to 10 (≈ 2.81 to 28.1 µM)	1 to 10 (≈ 2.81 to 28.1 µM)	< 1	1 to 10 (≈ 2.81 to 28.1 µM)	10 to 100 (≈ 28.1 to 281 µM)	–	–	–	–
Cc1nc2c(=O)n(C3CC3)c3cc(N4CCC(C(C)N)C4)c(F)cc3c2o1 (stereo not drawn) [Compound 54, 7-[3-(1-aminoethyl)pyrrolidin-1-yl]-5-cyclopropyl-8-fluoro-2-methyl-oxazolo[4,5-c]quinolin-4-one]	–	–	1 to 10 (≈ 2.7 to 27 µM)	10 to 100 (≈ 27 to 270 µM)	1 to 10 (≈ 2.7 to 27 µM)	1 to 10 (≈ 2.7 to 27 µM)	1 to 10 (≈ 2.7 to 27 µM)	–	–	–	–	10 to 100 (≈ 27 to 270 µM)	–	–	1 to 10 (≈ 2.7 to 27 µM)	–
Nc1cc(F)c(-c2cc3c(cc2F)c2ocnc2c(=O)n3C2CC2)cc1F [Compound 69, 7-(4-amino-2,5-difluoro-phenyl)-5-cyclopropyl-8-fluoro-oxazolo[4,5-c]quinolin-4-one]	< 1	1 to 10 (≈ 2.69 to 26.9 µM)	1 to 10 (≈ 2.69 to 26.9 µM)	–	< 1	< 1	< 1	–	–	< 1	< 1	> 100	1 to 10 (≈ 2.69 to 26.9 µM)	–	–	–
Cc1nc2c(=O)n3c4c(c(N5CC[C@H](CN)C5)c(F)cc4c2o1)OC[C@@H]3C [Compound 89, (2S)-6-[(3R)-3-(aminomethyl)pyrrolidin-1-yl]-7-fluoro-2,12-dimethyl-4,11-dioxa-1,13-diazatetracyclo[7.6.1.0^5,^16.0^10,^14]hexadeca-5(16),6,8,10(14),12-pentaen-15-one]	1 to 10 (≈ 2.69 to 26.9 µM)	1 to 10 (≈ 2.69 to 26.9 µM)	1 to 10 (≈ 2.69 to 26.9 µM)	10 to 100 (≈ 26.9 to 269 µM)	1 to 10 (≈ 2.69 to 26.9 µM)	1 to 10 (≈ 2.69 to 26.9 µM)	1 to 10 (≈ 2.69 to 26.9 µM)	1 to 10 (≈ 2.69 to 26.9 µM)	1 to 10 (≈ 2.69 to 26.9 µM)	1 to 10 (≈ 2.69 to 26.9 µM)	10 to 100 (≈ 26.9 to 269 µM)	10 to 100 (≈ 26.9 to 269 µM)	–	–	–	1 to 10 (≈ 2.69 to 26.9 µM)
C[C@H]1COc2c(-c3ccc(N)nc3)ccc3c4ocnc4c(=O)n1c23 [Compound 95, (-2S)-6-(6-aminopyridin-3-yl)-2-methyl-4,11-dioxa-1,13-diazatetracyclo[7.6.1.0^5,^16.0^10,^14]hexadeca-5(16),6,8,10(14),12-pentaen-15-one]	1 to 10 (≈ 2.99 to 29.9 µM)	1 to 10 (≈ 2.99 to 29.9 µM)	1 to 10 (≈ 2.99 to 29.9 µM)	> 100	1 to 10 (≈ 2.99 to 29.9 µM)	1 to 10 (≈ 2.99 to 29.9 µM)	< 1	–	1 to 10 (≈ 2.99 to 29.9 µM)	1 to 10 (≈ 2.99 to 29.9 µM)	1 to 10 (≈ 2.99 to 29.9 µM)	10 to 100 (≈ 29.9 to 299 µM)	1 to 10 (≈ 2.99 to 29.9 µM)	–	–	–
Cc1c(-c2cc(F)c(N)cc2F)ccc2c3scnc3c(=O)n(C3CC3)c12 [Compound 108, 7-(4-amino-2,5-difluorophenyl)-5-cyclopropyl-6-methyl-thiazolo[4,5-c]quinolin-4-one]	< 1	< 1	1 to 10 (≈ 2.61 to 26.1 µM)	10 to 100 (≈ 26.1 to 261 µM)	< 1	< 1	< 1	< 1	< 1	< 1	< 1	10 to 100 (≈ 26.1 to 261 µM)	< 1	–	–	–
Cc1c(-c2ccc3[nH]ncc3c2)ccc2c3scnc3c(=O)n(C3CC3)c12 [Compound 109, 5-Cyclopropyl-7-(1H-indazol-5-yl)-6-methyl-thiazolo[4,5-c]quinolin-4-one]	< 1	< 1	< 1	–	< 1	< 1	1 to 10 (≈ 2.68 to 26.8 µM)	–	< 1	< 1	< 1	> 100	1 to 10 (≈ 2.68 to 26.8 µM)	–	–	–
